# Experimental data taken from US4559323A, “A41030 Antibiotics” (Eli Lilly and Company, priority 1984, dated 1985).
# Like-named read-outs stand apart in the source and are kept apart here.
# How the values were obtained:
# [1] = test system: Peptococcus asaccharolyticus; test: Agar-dilution MIC (anaerobes); assay type: cell-based; settings: Table 15
# Procedure: (§1) The MIC values were determined by the agar-dilution method, and are recorded in Table 15, which follows.
# [2] = mice, administered intraperitoneally
# [3] = test system: Peptococcus asaccharolyticus; test: Agar-dilution MIC (anaerobes); assay type: cell-based; settings: Table 14; Peptococcus asaccharolyticus 1302
# [4] = test system: Pc. constellatus; test: Agar-dilution MIC (anaerobes); assay type: cell-based, Peptococcus constellatus; settings: Table 15; Pc. constellatus 1468
# Procedure: as §1
# [5] = test system: Pc. magnus; test: Agar-dilution MIC (anaerobes); assay type: cell-based, Peptococcus magnus; settings: Table 15
# Procedure: as §1
# [6] = test system: Streptococcus sp. Group B; test: Agar-dilution MIC; assay type: cell-based; settings: Table 18, 24 hours
# Text: (§2) The in vitro activity of antibiotic A41030 factors A and B against a number of representative aerobic, gram-positive bacteria, including Streptococcus sp. Group D, has been determined using a standard agar-dilution assay.
# [7] = test system: Streptococcus sp. ATCC 10389; test: Agar-dilution MIC; assay type: cell-based; settings: Table 18, 24 hours
# Text: as §2
# [8] = test system: Serratia marcescens; test: Agar-dilution MIC; assay type: cell-based; settings: Table 17; 24 hours; Serratia marcescens X99
# [9] = test system: Staphylococcus epidermidis; test: Agar-dilution MIC; assay type: cell-based; settings: 24 hours
# Text: (§3) The agar-dilution procedure described by the International Collaborative study (ICS) group was used to determine the minimum inhibitory concentrations (MIC's).
# [10] = test system: Streptococcus pneumoniae; test: Agar-dilution MIC; assay type: cell-based; settings: 24 hours
# Text: as §3
# [11] = test system: Escherichia coli; test: Agar-dilution MIC; assay type: cell-based; settings: Table 17, 24 hours
# [12] = test system: Haemophilus parainfluenzae; test: Agar-dilution MIC; assay type: cell-based; settings: Table 18, 24 hours
# [13] = test system: Klebsiella pneumoniae; test: Agar-dilution MIC; assay type: cell-based; settings: Table 17; 24 hours; Klebsiella pneumoniae X68
# [14] = test system: Staphylococcus aureus; test: Agar-dilution MIC; assay type: cell-based
# [15] = test system: Enterobacter aerogenes; test: Agar-dilution MIC; assay type: cell-based; settings: Table 17; 24 hours; Enterobacter aerogenes C32
# [16] = test system: Propionibacterium acnes; test: Agar-dilution MIC (anaerobes); assay type: cell-based
# Text: Antibiotic A41030 factors A, B and C have also been tested and found to be active against a genus of anaerobic bacteria identified as Propionibacterium acnes.
# [17] = test system: Bacteroides fragilis; test: Agar-dilution MIC (anaerobes); assay type: cell-based
# Text: as §3
structure (smiles),measurement,setting,value
N[C@H]1C(=O)N[C@@H]2Cc3ccc(c(Cl)c3)Oc3cc4cc(c3O)Oc3ccc(cc3Cl)[C@@H](O)[C@@H]3NC(=O)C(NC(=O)[C@@H]4NC(=O)[C@@H](NC2=O)c2cc(O)cc(c2)Oc2cc1ccc2O)c1ccc(O)c(c1)-c1c(O)cc(O)cc1[C@@H](C(=O)O)NC3=O [A41030 factor B],MIC,[1]; Pc. asaccharolyticus 1302,0.125 µg/mL
same,MIC,[1]; Pc. asaccharolyticus 1344,0.5 µg/mL
same,LD50,[2],> 300 mg/kg
same,acute toxicity,[2],> 300 mg/kg
same,MIC,[3],≤ 0.25 µg/mL
same,MIC,[4],0.5 µg/mL
same,MIC,[5]; Pc. magnus 1401,0.125 µg/mL
same,MIC,[5]; Pc. magnus 1421,0.125 µg/mL
same,MIC,[5]; Pc. magnus 1477,0.25 µg/mL
same,MIC,[6]; Streptococcus sp. Group B 5,1 µg/mL
same,MIC,[6]; Streptococcus sp. Group B 14,0.125 µg/mL
same,MIC,[7],0.25 µg/mL
same,MIC,[8],128 µg/mL
same,MIC,"[9]; Table 17, Staphylococcus epidermidis EPI1",0.125 µg/mL
same,MIC,"[9]; Table 17, Staphylococcus epidermidis EPI2",0.5 µg/mL
same,MIC,"[9]; Table 18, Staphylococcus epidermidis 219",0.03 µg/mL
same,MIC,"[9]; Table 18, Staphylococcus epidermidis 222",0.125 µg/mL
same,MIC,"[9]; Table 18, Staphylococcus epidermidis 269",0.03 µg/mL
same,MIC,"[9]; Table 18, Staphylococcus epidermidis 270",0.06 µg/mL
same,MIC,"[9]; Table 18, Staphylococcus epidermidis 285",0.03 µg/mL
same,MIC,"[10]; Table 17, Streptococcus pneumoniae Park I",0.5 µg/mL
same,MIC,"[10]; Table 18, Streptococcus pneumoniae B1-438",0.5 µg/mL
same,MIC,"[10]; Table 18, Streptococcus pneumoniae Park I",0.125 µg/mL
same,MIC,[11]; Escherichia coli EC14,128 µg/mL
same,MIC,[11]; Escherichia coli N10,128 µg/mL
same,MIC,[11]; Escherichia coli TEM,128 µg/mL
same,MIC,[12]; Haemophilus parainfluenzae 7901,16 µg/mL
same,MIC,[12]; Haemophilus parainfluenzae 9796,16 µg/mL
same,MIC,[13],128 µg/mL
same,MIC,[14],0.125 µg/mL
same,MIC,"[14]; Table 17, 24 hours, Staphylococcus aureus S13E",0.125 µg/mL
same,MIC,"[14]; Table 17, 24 hours, Staphylococcus aureus X400",0.25 µg/mL
same,MIC,"[14]; Table 18, 24 hours, Staphylococcus aureus 3055",0.06 µg/mL
same,MIC,"[14]; Table 18, 24 hours, Staphylococcus aureus V138",0.06 µg/mL
same,MIC,[15],64 µg/mL
same,MIC,"[16]; Table 13, 24-hour, P. acnes 44",0.06 µg/mL
same,MIC,"[16]; Table 13, 24-hour, P. acnes 79",0.06 µg/mL
same,MIC,"[16]; Table 13, 24-hour, P. acnes 101",0.06 µg/mL
same,MIC,"[16]; Table 13, 24-hour, P. acnes 103",0.06 µg/mL
same,MIC,"[16]; Table 13, 24-hour, P. acnes 104",0.25 µg/mL
same,MIC,"[16]; Table 13, 24-hour, P. acnes 105",0.06 µg/mL
same,MIC,"[16]; Table 13, 24-hour, P. acnes 106",0.06 µg/mL
same,MIC,"[16]; Table 13, 24-hour, P. acnes 107",0.06 µg/mL
same,MIC,"[16]; Table 13, 24-hour, P. acnes 5170",≤ 0.03 µg/mL
same,MIC,"[16]; Table 13, 24-hour, P. acnes 5176",0.06 µg/mL
same,MIC,"[16]; Table 13, 24-hour, P. acnes 5187",0.06 µg/mL
same,MIC,"[16]; Table 13, 24-hour, P. acnes 5191",0.06 µg/mL
same,MIC,"[16]; Table 13, 24-hour, P. acnes 5197",0.06 µg/mL
same,MIC,"[16]; Table 13, 24-hour, P. acnes 5226",0.5 µg/mL
same,MIC,"[16]; Table 13, 24-hour, P. acnes 5227",0.06 µg/mL
same,MIC,"[16]; Table 13, 24-hour, P. acnes 5228",0.5 µg/mL
same,MIC,"[16]; Table 13, 24-hour, P. acnes 5229",0.25 µg/mL
same,MIC,"[16]; Table 13, 24-hour, P. acnes 5246",0.125 µg/mL
same,MIC,"[16]; Table 13, 24-hour, P. acnes 5292",0.06 µg/mL
same,MIC,"[16]; Table 14, Propionibacterium acnes 79",16 µg/mL
same,MIC,"[17]; Table 12, 24-hour, B. fragilis 2",32 µg/mL
same,MIC,"[17]; Table 12, 24-hour, B. fragilis 9",32 µg/mL
same,MIC,"[17]; Table 12, 24-hour, B. fragilis 103",32 µg/mL
same,MIC,"[17]; Table 12, 24-hour, B. fragilis 104",32 µg/mL
same,MIC,"[17]; Table 12, 24-hour, B. fragilis 106",32 µg/mL
same,MIC,"[17]; Table 12, 24-hour, B. fragilis 107",32 µg/mL
same,MIC,"[17]; Table 12, 24-hour, B. fragilis 108",32 µg/mL
same,MIC,"[17]; Table 12, 24-hour, B. fragilis 110",64 µg/mL
same,MIC,"[17]; Table 12, 24-hour, B. fragilis 111",32 µg/mL
same,MIC,"[17]; Table 12, 24-hour, B. fragilis 112",32 µg/mL
same,MIC,"[17]; Table 12, 24-hour, B. fragilis 113",32 µg/mL
same,MIC,"[17]; Table 12, 24-hour, B. fragilis 1451",64 µg/mL
same,MIC,"[17]; Table 12, 24-hour, B. fragilis 1470",64 µg/mL
same,MIC,"[17]; Table 12, 24-hour, B. fragilis 1877",32 µg/mL
same,MIC,"[17]; Table 12, 24-hour, B. fragilis 9032",32 µg/mL
same,MIC,"[17]; Table 14, Bacteroides fragilis 111",64 µg/mL
same,MIC,"[17]; Table 14, Bacteroides fragilis 1877",32 µg/mL
same,MIC,"[17]; Table 14, Bacteroides fragilis 1936B",32 µg/mL
